Key:
[1] = DRUGMATRIX: Calcium Channel Type L, Phenylalkylamine radioligand binding (ligand: [3H] (-)-Desmethoxyverapamil (D-888)); format: cell membranes, Rattus norvegicus, Wistar, Brain, Membrane; conditions: Not Active = under 50% inhibition at 10 µM
[2] = target: T1, Vasoactive intestinal polypeptide receptor 1 (Homo sapiens, UniProt P32241); format: cell membranes, Membrane; conditions: ht-29; also: in other assays of this panel Not Active means under 50% inhibition at 10 µM
T1 sequence (P32241 whole entry): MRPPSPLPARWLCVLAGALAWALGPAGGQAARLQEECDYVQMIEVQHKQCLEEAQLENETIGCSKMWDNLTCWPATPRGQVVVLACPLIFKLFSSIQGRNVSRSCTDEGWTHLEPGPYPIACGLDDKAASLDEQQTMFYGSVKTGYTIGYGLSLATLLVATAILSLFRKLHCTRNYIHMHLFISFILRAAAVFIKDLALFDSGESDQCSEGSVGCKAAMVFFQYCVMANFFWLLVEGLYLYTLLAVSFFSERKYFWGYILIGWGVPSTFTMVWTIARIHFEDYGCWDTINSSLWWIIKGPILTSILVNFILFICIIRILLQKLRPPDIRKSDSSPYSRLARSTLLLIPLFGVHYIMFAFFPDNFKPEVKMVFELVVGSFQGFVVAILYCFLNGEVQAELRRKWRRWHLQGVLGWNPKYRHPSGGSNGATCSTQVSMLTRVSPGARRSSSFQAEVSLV

[3] = target: T2, Adenosine receptor A3 (Homo sapiens, UniProt P0DMS8); format: cell membranes, CHO-K1, Membrane;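 also: radioligand binding assay with AB-MECA serving as the labeled ligand; in other assays of this panel Not Active means under 50% inhibition at 10 µM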
T2 sequence (P0DMS8 whole entry): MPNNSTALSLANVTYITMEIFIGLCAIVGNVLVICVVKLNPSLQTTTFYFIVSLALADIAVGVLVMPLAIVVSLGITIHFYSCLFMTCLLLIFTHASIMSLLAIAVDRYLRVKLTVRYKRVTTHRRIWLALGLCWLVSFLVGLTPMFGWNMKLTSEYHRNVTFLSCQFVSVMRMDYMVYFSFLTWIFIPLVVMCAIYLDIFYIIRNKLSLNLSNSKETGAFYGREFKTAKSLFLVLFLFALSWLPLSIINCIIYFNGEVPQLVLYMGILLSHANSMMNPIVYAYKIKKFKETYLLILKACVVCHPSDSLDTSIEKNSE

[4] = DRUGMATRIX: ATPase, Na+/K+ enzyme inhibition (substrate: ATP); format: tissue-based, Sus scrofa, Heart; conditions: Not Active = under 50% inhibition at 10 µM
[5] = target: Melanocortin receptor 3 (Homo sapiens, UniProt P41968); format: cell membranes, Membrane; conditions: hek293; also: in other assays of this panel Not Active means under 50% inhibition at 10 µM
[6] = target: Tyrosine-protein kinase Lck (Homo sapiens, UniProt P06239); assay: DRUGMATRIX: Protein Tyrosine Kinase, LCK enzyme inhibition (substrate: Poly(Glu:Tyr)); format: cell-based, Insect cells; conditions: insect cells; Not Active = under 50% inhibition at 10 µM
[7] = target: Sodium-dependent dopamine transporter (Homo sapiens, UniProt Q01959); assay: DRUGMATRIX: Dopamine Transporter radioligand binding (ligand: [125I] RTI-55); format: cell membranes, CHO-K1, Membrane; conditions: cho-k1; Not Active = under 50% inhibition at 10 µM
[8] = target: Beta-1 adrenergic receptor (Homo sapiens, UniProt P08588); assay: DRUGMATRIX: Adrenergic beta1 radioligand binding (ligand: [125I] Cyanopindolol); format: cell membranes, CHO-K1, Membrane; conditions: cho-k1; Not Active = under 50% inhibition at 10 µM
[9] = target: Beta-3 adrenergic receptor (Homo sapiens, UniProt P13945); assay: DRUGMATRIX: Adrenergic beta3 radioligand binding (ligand: [125I] Cyanopindolol); format: cell membranes, Membrane; conditions: hek293; Not Active = under 50% inhibition at 10 µM
Sequence of Beta-3 adrenergic receptor (P13945 whole entry): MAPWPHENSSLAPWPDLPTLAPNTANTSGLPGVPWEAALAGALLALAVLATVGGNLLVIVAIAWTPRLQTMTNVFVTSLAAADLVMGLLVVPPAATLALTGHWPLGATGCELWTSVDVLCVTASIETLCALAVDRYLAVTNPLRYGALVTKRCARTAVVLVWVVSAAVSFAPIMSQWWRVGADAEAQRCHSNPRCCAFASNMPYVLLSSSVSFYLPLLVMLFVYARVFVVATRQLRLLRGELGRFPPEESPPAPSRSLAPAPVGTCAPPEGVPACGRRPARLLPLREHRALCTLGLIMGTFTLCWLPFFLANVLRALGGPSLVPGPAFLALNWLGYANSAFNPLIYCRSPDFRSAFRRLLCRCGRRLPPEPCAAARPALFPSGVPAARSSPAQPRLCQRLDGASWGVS

Sequence of Beta-1 adrenergic receptor (P08588 whole entry): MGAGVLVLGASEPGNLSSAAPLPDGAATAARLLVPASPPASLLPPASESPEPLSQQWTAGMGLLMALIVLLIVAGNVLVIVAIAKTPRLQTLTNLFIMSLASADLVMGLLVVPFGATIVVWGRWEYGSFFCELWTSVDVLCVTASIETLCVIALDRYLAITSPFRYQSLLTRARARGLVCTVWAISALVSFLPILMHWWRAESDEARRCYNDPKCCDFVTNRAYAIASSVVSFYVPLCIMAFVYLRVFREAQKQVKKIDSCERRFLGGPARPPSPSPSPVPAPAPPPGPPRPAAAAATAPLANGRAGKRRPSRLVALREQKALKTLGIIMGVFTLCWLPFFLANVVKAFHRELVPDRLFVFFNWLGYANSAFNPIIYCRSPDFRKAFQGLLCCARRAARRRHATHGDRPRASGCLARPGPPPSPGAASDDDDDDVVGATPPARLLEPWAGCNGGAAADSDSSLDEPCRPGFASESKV
Sequence of Melanocortin receptor 3 (P41968 whole entry): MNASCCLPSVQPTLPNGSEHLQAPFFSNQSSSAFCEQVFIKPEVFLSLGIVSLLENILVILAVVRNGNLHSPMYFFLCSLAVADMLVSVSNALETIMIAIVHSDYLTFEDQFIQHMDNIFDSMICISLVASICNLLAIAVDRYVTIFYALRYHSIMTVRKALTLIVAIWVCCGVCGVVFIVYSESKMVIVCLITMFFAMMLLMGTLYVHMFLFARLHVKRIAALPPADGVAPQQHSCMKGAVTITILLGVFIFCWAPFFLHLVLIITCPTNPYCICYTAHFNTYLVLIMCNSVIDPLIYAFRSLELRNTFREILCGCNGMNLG
Sequence of Sodium-dependent dopamine transporter (Q01959 whole entry): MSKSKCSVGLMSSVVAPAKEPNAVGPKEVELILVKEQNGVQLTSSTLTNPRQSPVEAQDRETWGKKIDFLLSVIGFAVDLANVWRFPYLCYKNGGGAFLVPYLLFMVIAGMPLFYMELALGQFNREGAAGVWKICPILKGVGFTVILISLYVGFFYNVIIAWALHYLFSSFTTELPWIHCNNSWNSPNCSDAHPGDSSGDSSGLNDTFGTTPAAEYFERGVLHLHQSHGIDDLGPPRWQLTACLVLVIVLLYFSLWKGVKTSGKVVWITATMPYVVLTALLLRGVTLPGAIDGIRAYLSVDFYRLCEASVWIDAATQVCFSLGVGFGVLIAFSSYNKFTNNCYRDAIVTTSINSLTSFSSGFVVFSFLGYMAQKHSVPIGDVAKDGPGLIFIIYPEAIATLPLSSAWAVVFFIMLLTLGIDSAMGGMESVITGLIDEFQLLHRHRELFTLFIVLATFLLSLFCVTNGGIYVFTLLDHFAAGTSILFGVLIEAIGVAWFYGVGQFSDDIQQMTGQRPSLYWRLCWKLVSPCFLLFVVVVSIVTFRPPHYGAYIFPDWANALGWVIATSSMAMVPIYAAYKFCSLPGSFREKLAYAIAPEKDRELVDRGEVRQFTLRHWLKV
Sequence of Tyrosine-protein kinase Lck (P06239 whole entry): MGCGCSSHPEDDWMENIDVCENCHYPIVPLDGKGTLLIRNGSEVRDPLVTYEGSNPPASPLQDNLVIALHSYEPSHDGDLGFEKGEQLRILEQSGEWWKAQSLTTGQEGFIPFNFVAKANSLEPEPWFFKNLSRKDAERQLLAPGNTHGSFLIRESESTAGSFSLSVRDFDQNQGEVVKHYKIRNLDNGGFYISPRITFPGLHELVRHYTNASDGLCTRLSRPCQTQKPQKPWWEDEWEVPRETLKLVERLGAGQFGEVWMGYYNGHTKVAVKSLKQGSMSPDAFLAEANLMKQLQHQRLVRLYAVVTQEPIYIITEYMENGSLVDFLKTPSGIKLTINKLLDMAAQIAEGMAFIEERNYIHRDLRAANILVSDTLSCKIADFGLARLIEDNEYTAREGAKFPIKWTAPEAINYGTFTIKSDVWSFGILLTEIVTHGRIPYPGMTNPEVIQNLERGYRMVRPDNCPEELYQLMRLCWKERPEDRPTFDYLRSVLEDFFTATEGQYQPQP

| SMILES | IC50 [1] | Ki [1] | IC50 [2] | IC50 ([3]; cho-k1) | IC50 [4] | Ki [4] | IC50 [5] | IC50 [6] | IC50 [7] | IC50 [8] | IC50 [9] | IC50 ([3]; read-out: IC50) [nM] | Ki ([3]; read-out: Ki) [nM] |
| --- | --- | --- | --- | --- | --- | --- | --- | --- | --- | --- | --- | --- | --- |
| CC(=O)N[C@@H]1[C@H](Oc2c3cc4cc2Oc2ccc(cc2Cl)[C@@H](O[C@@H]2O[C@@H](CO)[C@@H](O)[C@H](O)[C@@H]2NC(C)=O)[C@@H]2NC(=O)[C@H](NC(=O)[C@@H]4NC(=O)[C@H]4NC(=O)[C@@H](Cc5ccc(c(Cl)c5)O3)NC(=O)[C@H](N)c3ccc(O)c(c3)Oc3cc(O)cc4c3)c3ccc(O)c(c3)-c3c(O[C@H]4O[C@H](CO)[C@@H](O)[C@@H](O)[C@@H]4O)cc(O)cc3[C@@H](C(=O)O)NC2=O)O[C@@H](CO)[C@@H](O)[C@@H]1O | Not Active | Not Active | Not Active | Not Active | Not Active | Not Active | Not Active | Not Active | Not Active | Not Active | Not Active |  |  |
| O=C1CCC(N2C(=O)c3ccccc3C2=O)C(=O)N1 (stereo unspecified) [THALIDOMIDE] | Not Active | Not Active | Not Active | Not Active | Not Active | Not Active | Not Active | Not Active | Not Active | Not Active | Not Active |  |  |
| CC[C@]1(O)C[C@@H]2CN(CCc3c([nH]c4ccccc34)[C@@](C(=O)OC)(c3cc4c(cc3OC)N(C)[C@H]3[C@@](O)(C(=O)OC)[C@H](OC(C)=O)[C@]5(CC)C=CCN6CC[C@]43[C@@H]65)C2)C1 [VINBLASTINE] | Not Active | Not Active | Not Active | Not Active | Not Active | Not Active | Not Active | Not Active | Not Active | Not Active | Not Active |  |  |
| CC1=C(CC(=O)O)c2cc(F)ccc2/C1=C\c1ccc([S+](C)[O-])cc1 (stereo unspecified) | Not Active | Not Active | Not Active | Not Active | Not Active | Not Active | Not Active | Not Active | Not Active | Not Active | Not Active |  |  |
| CC(C)C[C@H](NC(=O)[C@@H](O)[C@H](N)Cc1ccccc1)C(=O)O [UBENIMEX] | Not Active | Not Active | Not Active | Not Active | Not Active | Not Active | Not Active | Not Active | Not Active | Not Active | Not Active |  |  |
| CC(=O)CC(c1ccccc1)c1c(O)c2ccccc2oc1=O (stereo unspecified) [WARFARIN] | Not Active | Not Active | Not Active | Not Active | Not Active | Not Active | Not Active | Not Active | Not Active | Not Active | Not Active |  |  |
| COCCCOc1ccnc(C[S+]([O-])c2nc3ccccc3[nH]2)c1C (stereo unspecified) [RABEPRAZOLE] | Not Active | Not Active | Not Active |  | Not Active | Not Active | Not Active | Not Active | Not Active | Not Active | Not Active | 3220 | 1820 |
| N[C@H](CSC(=S)NCc1ccccc1)C(=O)O | Not Active | Not Active | Not Active | Not Active | Not Active | Not Active | Not Active | Not Active | Not Active | Not Active | Not Active |  |  |
| [H]/N=C(/N)N[C@H]1[C@H](O)[C@@H](O)[C@H](O[C@@H]2O[C@@H](C)[C@](O)(C=O)[C@H]2O[C@@H]2O[C@@H](CO)[C@H](O)[C@@H](O)[C@@H]2NC)[C@@H](N/C(N)=N\[H])[C@@H]1O [STREPTOMYCIN] | Not Active | Not Active | Not Active | Not Active | Not Active | Not Active | Not Active | Not Active | Not Active | Not Active | Not Active |  |  |
| CO[C@H]1/C=C/O[C@@]2(C)Oc3c(C)c(O)c4c(c3C2=O)C2=NC3(CCN(CC(C)C)CC3)NC2=C(NC(=O)/C(C)=C\C=C\[C@H](C)[C@H](O)[C@@H](C)[C@@H](O)[C@@H](C)[C@H](OC(C)=O)[C@@H]1C)C4=O [RIFABUTIN] | Not Active | Not Active | Not Active | Not Active | Not Active | Not Active | Not Active | Not Active | Not Active | Not Active | Not Active |  |  |

— ChEMBL document CHEMBL1909046, “DrugMatrix in vitro pharmacology data”
